Test results taken from ChEMBL document CHEMBL4808193, “[11]-Chaetoglobosins from Pseudeurotium bakeri Induce G2/M Cell Cycle Arrest and Apoptosis in Human Cancer Cells” (J Nat Prod, 2021).
Active and inactive are the calls of the source. The rule behind the calls is not given here.

Assays:
A-427 [1] = assay: Cell cycle arrest in human A-427 cells assessed as accumulation at G2/M phase at 2.5 uM measured after 24 hrs by PI staining based flow cytometry (reference value: 19.81%); format: functional
MCF7 [2] = assay: Cell cycle arrest in human MCF7 cells assessed as accumulation at G0/G1 phase at 7.5 uM measured after 24 hrs by PI staining based flow cytometry (reference value: 60.23%); format: functional
HT-29 = assay: Cytotoxicity against human HT-29 cells assessed as reduction in cell viability by MTT assay; format: functional, cell-based
MCF7 [3] = assay: Induction of apoptosis in human MCF7 cells assessed as late apoptotic cells at 10 uM measured after 24 hrs by Annexin V-FITC/propidium iodide staining based flow cytometric analysis (reference value: 1.11%); format: functional
MCF7 [4] = assay: Induction of apoptosis in human MCF7 cells assessed as early apoptotic cells at 10 uM measured after 24 hrs by Annexin V-FITC/propidium iodide staining based flow cytometric analysis (reference value: 4.82%); format: functional
A-427 [5] = assay: Cell cycle arrest in human A-427 cells assessed as accumulation at G2/M phase at 3.75 uM measured after 24 hrs by PI staining based flow cytometry (reference value: 19.81%); format: functional
MCF7 [6] = assay: Induction of apoptosis in human MCF7 cells assessed as late apoptotic cells at 5 uM measured after 24 hrs by Annexin V-FITC/propidium iodide staining based flow cytometric analysis (reference value: 1.11%); format: functional
A549 = assay: Cytotoxicity against human A549 cells assessed as reduction in cell viability by MTT assay; format: functional, cell-based
L02 = assay: Cytotoxicity against human L02 cells assessed as reduction in cell viability by MTT assay; format: cell-based
A-427 [7] = assay: Cell cycle arrest in human A-427 cells assessed as accumulation at G2/M phase at 5 uM measured after 24 hrs by PI staining based flow cytometry (reference value: 19.81%); format: functional
HepG2 = assay: Cytotoxicity against human HepG2 cells assessed as reduction in cell viability by MTT assay; format: functional, cell-based
MCF7 [8] = assay: Cell cycle arrest in human MCF7 cells assessed as accumulation at G2/M phase at 10 uM measured after 24 hrs by PI staining based flow cytometry (reference value: 15.13%); format: functional
A-427 [9] = assay: Cell cycle arrest in human A-427 cells assessed as accumulation at G0/G1 phase at 2.5 uM measured after 24 hrs by PI staining based flow cytometry (reference value: 52.93%); format: functional
MCF7 [10] = assay: Induction of apoptosis in human MCF7 cells assessed as increase in cleaved PARP level at 5 to 10 uM incubated for 24 hrs by Western blot analysis; format: functional, cell-based; conditions: dose 5-10 µM
MCF7 [11] = assay: Cell cycle arrest in human MCF7 cells assessed as accumulation at G2/M phase at 7.5 uM measured after 24 hrs by PI staining based flow cytometry (reference value: 15.13%); format: functional
MCF7 [12] = assay: Cell cycle arrest in human MCF7 cells assessed as accumulation at G2/M phase at 5 uM measured after 24 hrs by PI staining based flow cytometry (reference value: 15.13%); format: functional
MCF7 [13] = assay: Induction of apoptosis in human MCF7 cells assessed as early apoptotic cells at 5 uM measured after 24 hrs by Annexin V-FITC/propidium iodide staining based flow cytometric analysis (reference value: 4.82%); format: functional
MCF7 [14] = assay: Cell cycle arrest in human MCF7 cells assessed as accumulation at S phase at 7.5 uM measured after 24 hrs by PI staining based flow cytometry (reference value: 24.64%; format: functional
A-427 [15] = assay: Cell cycle arrest in human A-427 cells assessed as accumulation at S phase at 2.5 uM measured after 24 hrs by PI staining based flow cytometry (reference value: 27.27%); format: functional
A-427 [16] = assay: Cell cycle arrest in human A-427 cells assessed as accumulation at G0/G1 phase at 5 uM measured after 24 hrs by PI staining based flow cytometry (reference value: 52.93%); format: functional
MCF7 [17] = assay: Induction of apoptosis in human MCF7 cells assessed as late apoptotic cells at 7.5 uM measured after 24 hrs by Annexin V-FITC/propidium iodide staining based flow cytometric analysis (reference value: 1.11%); format: functional
A-427 [18] = assay: Induction of apoptosis in human A-427 cells assessed as late apoptotic cells at 3.75 uM measured after 24 hrs by Annexin V-FITC/propidium iodide staining based flow cytometric analysis (reference value: 3.18%); format: functional
A-427 [19] = assay: Induction of apoptosis in human A-427 cells assessed as early apoptotic cells at 5 uM measured after 24 hrs by Annexin V-FITC/propidium iodide staining based flow cytometric analysis (reference value: 4.98%); format: functional
MCF7 [20] = assay: Cell cycle arrest in human MCF7 cells assessed as accumulation at G0/G1 phase at 10 uM measured after 24 hrs by PI staining based flow cytometry (reference value: 60.23%); format: functional
MCF7 [21] = assay: Cell cycle arrest in human MCF7 cells assessed as accumulation at S phase at 10 uM measured after 24 hrs by PI staining based flow cytometry (reference value: 24.64%); format: functional
MCF7 [22] = assay: Induction of apoptosis in human MCF7 cells assessed as increase in Bax protein level at 5 to 10 uM incubated for 24 hrs by Western blot analysis; format: functional, cell-based; conditions: dose 5-10 µM
MCF7 [23] = assay: Induction of apoptosis in human MCF7 cells assessed as increase in cleaved caspase 3 level at 5 to 10 uM incubated for 24 hrs by Western blot analysis; format: functional, cell-based; conditions: dose 5-10 µM
MCF7 [24] = assay: Induction of apoptosis in human MCF7 cells assessed as early apoptotic cells at 7.5 uM measured after 24 hrs by Annexin V-FITC/propidium iodide staining based flow cytometric analysis (reference value: 4.82%); format: functional
HeLa = assay: Cytotoxicity against human HeLa cells assessed as reduction in cell viability by MTT assay; format: functional, cell-based
MCF7 [25] = assay: Cell cycle arrest in human MCF7 cells assessed as accumulation at S phase at 5 uM measured after 24 hrs by PI staining based flow cytometry (reference value: 24.64%); format: functional
HCT-116 = assay: Cytotoxicity against human HCT-116 cells assessed as reduction in cell viability by MTT assay; format: functional, cell-based
A-427 [26] = assay: Induction of apoptosis in human A-427 cells assessed as early apoptotic cells at 3.75 uM measured after 24 hrs by Annexin V-FITC/propidium iodide staining based flow cytometric analysis (reference value: 4.98%); format: functional
A-427 [27] = assay: Induction of apoptosis in human A-427 cells assessed as early apoptotic cells at 2.5 uM measured after 24 hrs by Annexin V-FITC/propidium iodide staining based flow cytometric analysis (reference value: 4.98%); format: functional
A-427 [28] = assay: Cell cycle arrest in human A-427 cells assessed as accumulation at S phase at 5 uM measured after 24 hrs by PI staining based flow cytometry (reference value: 27.27%); format: functional
A-427 [29] = assay: Induction of apoptosis in human A-427 cells assessed as late apoptotic cells at 2.5 uM measured after 24 hrs by Annexin V-FITC/propidium iodide staining based flow cytometric analysis (reference value: 3.18%); format: functional
MCF7 [30] = assay: Induction of apoptosis in human MCF7 cells assessed as increase in cytochrome c level at 5 to 10 uM incubated for 24 hrs by Western blot analysis; format: functional, cell-based; conditions: dose 5-10 µM
A-427 [31] = assay: Cell cycle arrest in human A-427 cells assessed as accumulation at G0/G1 phase at 3.75 uM measured after 24 hrs by PI staining based flow cytometry (reference value: 52.93%); format: functional
A-427 [32] = assay: Cell cycle arrest in human A-427 cells assessed as accumulation at S phase at 3.75 uM measured after 24 hrs by PI staining based flow cytometry (reference value: 27.27%); format: functional
MCF7 [33] = assay: Cytotoxicity against human MCF7 cells assessed as reduction in cell viability by MTT assay; format: functional, cell-based
A-427 [34] = assay: Cytotoxicity against human A-427 cells assessed as reduction in cell viability by MTT assay; format: functional, cell-based
MCF7 [35] = assay: Induction of apoptosis in human MCF7 cells assessed as increase in PARP level at 5 to 10 uM incubated for 24 hrs by Western blot analysis; format: functional, cell-based; conditions: dose 5-10 µM
A-427 [36] = assay: Induction of apoptosis in human A-427 cells assessed as late apoptotic cells at 5 uM measured after 24 hrs by Annexin V-FITC/propidium iodide staining based flow cytometric analysis (reference value: 3.18%); format: functional
MCF7 [37] = assay: Cell cycle arrest in human MCF7 cells assessed as accumulation at G0/G1 phase at 5 uM measured after 24 hrs by PI staining based flow cytometry (reference value: 60.23%); format: functional

With `CC1=C[C@@H]2/C=C/C[C@H](C)CC/C=C\C(=O)[C@]23C(=O)N[C@@H](Cc2c[nH]c4ccccc24)[C@@H]3[C@@H]1C` as the compound, how does the Activity (A-427 [1]) read?
Its Activity is 62.86%.

What about the Activity (MCF7 [2]) of the same compound?
Its Activity is 32.82%.

And the IC50 (HT-29)?
The IC50 was 6.7 µM.

What about the Activity (MCF7 [3]) of the same compound?
The Activity was 7.12%.

What about the Activity (MCF7 [4]) of the same compound?
Its Activity is 25.44%.

What about the Activity (A-427 [5]) of the same compound?
The Activity was 67.84%.

What about the Activity (MCF7 [6]) of the same compound?
Its Activity is 4.68%.

And the IC50 (A549)?
The IC50 was 8.2 µM.

And the IC50 (L02)?
Its IC50 is 44.1 µM.

What about the Activity (A-427 [7]) of the same compound?
Its Activity is 71.12%.

And the IC50 (HepG2)?
Its IC50 is 9.1 µM.

What about the Activity (MCF7 [8]) of the same compound?
Its Activity is 59.55%.

What about the Activity (A-427 [9]) of the same compound?
The Activity was 15.31%.

What about the Activity (MCF7 [10]) of the same compound?
Its Activity is “Active”.

What about the Activity (MCF7 [11]) of the same compound?
Its Activity is 48.75%.

And the Activity (MCF7 [12])?
The Activity was 42.22%.

And the Activity (MCF7 [13])?
The Activity was 11.86%.

And the Activity (MCF7 [14])?
Its Activity is 18.43%.

What about the Activity (A-427 [15]) of the same compound?
The Activity was 21.83%.

What about the Activity (A-427 [16]) of the same compound?
Its Activity is 11.04%.

What about the Activity (MCF7 [17]) of the same compound?
Its Activity is 6.76%.

And the Activity (A-427 [18])?
The Activity was 24.36%.

And the Activity (A-427 [19])?
Its Activity is 20.14%.

What about the Activity (MCF7 [20]) of the same compound?
The Activity was 28.08%.

And the Activity (MCF7 [21])?
Its Activity is 12.37%.

And the Activity (MCF7 [22])?
The Activity was “Active”.

What about the Activity (MCF7 [23]) of the same compound?
Its Activity is “Active”.

And the Activity (MCF7 [24])?
The Activity was 19.53%.

And the IC50 (HeLa)?
The IC50 was 7.1 µM.

And the Activity (MCF7 [25])?
Its Activity is 13.15%.

And the IC50 (HCT-116)?
The IC50 was 8 µM.

And the Activity (A-427 [26])?
The Activity was 15.57%.

What about the Activity (A-427 [27]) of the same compound?
The Activity was 11.53%.

And the Activity (A-427 [28])?
Its Activity is 17.84%.

And the Activity (A-427 [29])?
The Activity was 3.07%.

What about the Activity (MCF7 [30]) of the same compound?
Its Activity is “Active”.

And the Activity (A-427 [31])?
Its Activity is 13.13%.

And the Activity (A-427 [32])?
Its Activity is 19.02%.

And the IC50 (MCF7 [33])?
The IC50 was 6.2 µM.

What about the IC50 (A-427 [34]) of the same compound?
Its IC50 is 4.7 µM.

What about the Activity (MCF7 [35]) of the same compound?
Its Activity is “Active”.

What about the Activity (A-427 [36]) of the same compound?
Its Activity is 22.56%.

And the Activity (MCF7 [37])?
Its Activity is 44.64%.
